Reference: patent US11287431B2, “Method of testing for pulmonary hypertension” (TOHOKU UNIVERSITY, priority 2014, dated 2022)

System: pulmonary artery smooth muscle cells (PASMC) in idiopathic pulmonary arterial hypertension (IPAH) patients
Experiment: Selenoprotein P protein secretion by IPAH-PASMC at hypoxia, western blot of whole cell lysates and conditioned medium
Type: cell-based, human
Settings: IPAH-PASMC cultured 24 hours at hypoxia (oxygen concentration: 2%) in the presence of fasudil (hydroxyfasudil concentration: 10 μM), versus normoxia and hypoxia alone
From the text: The response of pulmonary artery smooth muscle cells (PASMC) in idiopathic pulmonary arterial hypertension (IPAH) patients (hereinafter also referred to as IPAH-PASMC) to hypoxia stimulation was observed.
Primary cell lines were established from pulmonary vascular smooth muscle in idiopathic pulmonary arterial hypertension patients, in accordance with the following document: Ogawa A, Nakamura K, Matsubara H, Fujio H, Ikeda T, Kobayashi K, Miyazaki I, Asanuma M, Miyaji K, Miura D, Kusano K F, Date H, Ohe T, Circulation, 2005; 112: 1806-1812. The pulmonary vascular smooth muscle in idiopathic pulmonary arterial hypertension patients was isolated from pulmonary arteries having an outer diameter of 1.5 mm or less.
IPAH-PASMC was cultured in D-MEM medium supplemented by 10% FBS (fetal bovine serum) at 37° C. under constant temperature and constant humidity conditions at 95% air and 5% CO2 in accordance with a usual method. In this test, passage 4 to 7 cells at a confluence of 70 to 80% were used. […]
After culturing, whole cell lysates and a conditioned medium were prepared for each sample, and selenoprotein P protein was detected by western blot analysis.

With `O=S(=O)(c1cccc2cnccc12)N1CCCNCC1` [fasudil] the “extracellular secretion of selenoprotein P protein (into the medium)” value was “enhanced secretion of selenoprotein P protein was not observed”.
